“And” between values parts separate entries of the source, which are not always exact repeats. Equal values may be shown once. Toxic doses and inconclusive results are not listed.
Tested on: B6C3F1 mice, Lewis lung carcinoma iv, survival T/C
Assay: NCI In Vivo Anticancer Drug Screen. Data for tumor model Lewis Lung Carcinoma (intravenous) in B6C3F1 mice
Conditions: endpoint: median survival time, schedule: Q01DX009 (ip), higher = longer survival
In short: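 T/C ratio derived from survival of compound-treated versus vehicle-treated mice bearing transplantable tumors.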

[1] = dose: 6.25 mg/kg/injection, vehicle: saline with Tween-80
[2] = dose: 6.25 mg/kg/injection, vehicle: saline
[3] = dose: 12.5 mg/kg/injection, vehicle: saline with Tween-80
[4] = dose: 12.5 mg/kg/injection, vehicle: saline
[5] = dose: 25.0 mg/kg/injection, vehicle: saline with Tween-80
[6] = dose: 25.0 mg/kg/injection, vehicle: saline
[7] = dose: 50.0 mg/kg/injection, vehicle: saline with Tween-80
[8] = dose: 50.0 mg/kg/injection, vehicle: saline
[9] = dose: 3.0 mg/kg/injection, vehicle: saline + alcohol
[10] = dose: 6.0 mg/kg/injection, vehicle: saline + alcohol
[11] = dose: 12.0 mg/kg/injection, vehicle: Klucel (hydroxypropylcellulose) (HPC)
[12] = dose: 12.0 mg/kg/injection, vehicle: saline + alcohol
[13] = dose: 12.5 mg/kg/injection, vehicle: suspension in saline
[14] = dose: 25.0 mg/kg/injection, vehicle: suspension in saline
[15] = dose: 50.0 mg/kg/injection, vehicle: suspension in saline
[16] = dose: 100.0 mg/kg/injection, vehicle: saline with Tween-80
[17] = dose: 200.0 mg/kg/injection, vehicle: saline with Tween-80
[18] = dose: 100.0 mg/kg/injection, vehicle: saline

O=C1C(O)=C(c2ccccc2)C(=O)C(O)=C1c1ccccc1
T/C (dose: 1.56 mg/kg/injection, vehicle: saline): 98 % of control | T/C (dose: 3.12 mg/kg/injection, vehicle: saline): 98 % of control and 117 % of control | T/C [1]: 99 % of control | T/C [2]: 99 % of control and 118 % of control | T/C [3]: 101 % of control | T/C [4]: 108 % of control and 113 % of control | T/C [5]: 101 % of control | T/C [6]: 98 % of control and 104 % of control | T/C [7]: 102 % of control | T/C [8]: 94 % of control and 99 % of control

O=CCC(O)C(O)C(O)CO (stereo not given)
T/C (dose: 300.0 mg/kg/injection, vehicle: suspension in saline): 102 % of control | T/C (dose: 600.0 mg/kg/injection, vehicle: suspension in saline): 108 % of control | T/C (dose: 1200.0 mg/kg/injection, vehicle: suspension in saline): 114 % of control | T/C (dose: 1800.0 mg/kg/injection, vehicle: suspension in saline): 117 % of control | T/C (dose: 2400.0 mg/kg/injection, vehicle: suspension in saline): 106 % of control

C=C/C(C)=C/[C@H](C)C(=O)C[C@H](O)CC1CC(=O)NC(=O)C1
T/C (dose: 6.25 mg/kg/injection, vehicle: other): 96 % of control | T/C (dose: 12.5 mg/kg/injection, vehicle: other): 96 % of control | T/C (dose: 25.0 mg/kg/injection, vehicle: other): 97 % of control | T/C (dose: 50.0 mg/kg/injection, vehicle: other): 92 % of control | T/C (dose: 100.0 mg/kg/injection, vehicle: other): 96 % of control | T/C (dose: 200.0 mg/kg/injection, vehicle: other): 100 % of control

O=NN(CCCl)C(=O)NCCCl
T/C (dose: 1.5 mg/kg/injection, vehicle: Klucel (hydroxypropylcellulose) (HPC)): 105 % of control | T/C (dose: 1.5 mg/kg/injection, vehicle: saline + alcohol): 107 % of control | T/C (dose: 3.0 mg/kg/injection, vehicle: Klucel (hydroxypropylcellulose) (HPC)): 120 % of control | T/C [9]: 121 % of control | T/C (dose: 5.0 mg/kg/injection, vehicle: saline with Tween-80): 303 % of control | T/C [10]: 152 % of control | T/C (dose: 10.0 mg/kg/injection, vehicle: saline with Tween-80): 181 % of control | T/C [11]: 114 % of control | T/C [12]: 180 % of control

C/C=C(\C)c1cc(=O)c2c(C)cc3c(c2o1)C(=O)c1c(O)c(C2CC(C)(N(C)C)C(OC(C)=O)C(C)O2)cc(C2CC(N(C)C)C(O)C(C)O2)c1C3=O (stereo not given)
T/C (dose: 0.15 mg/kg/injection, vehicle: suspension in saline): 101 % of control | T/C (dose: 0.31 mg/kg/injection, vehicle: suspension in saline): 103 % of control | T/C (dose: 0.62 mg/kg/injection, vehicle: suspension in saline): 97 % of control | T/C (dose: 1.25 mg/kg/injection, vehicle: suspension in saline): 107 % of control | T/C (dose: 2.5 mg/kg/injection, vehicle: suspension in saline): 111 % of control | T/C (dose: 5.0 mg/kg/injection, vehicle: suspension in saline): 106 % of control

CCCCn1cnc2c(=S)nc[nH]c21
T/C [6]: 112 % of control | T/C [8]: 110 % of control

NC(=S)c1ncn(C2OC(CO)C(O)C2O)c1N (stereo not given)
T/C [13]: 100 % of control | T/C [14]: 99 % of control | T/C [15]: 106 % of control | T/C (dose: 100.0 mg/kg/injection, vehicle: suspension in saline): 110 % of control | T/C (dose: 200.0 mg/kg/injection, vehicle: suspension in saline): 116 % of control

CCSC(=O)N1c2ccc(OC)cc2C=CC1C#N (stereo not given)
T/C [3]: 98 % of control | T/C [5]: 113 % of control | T/C [7]: 99 % of control | T/C [16]: 104 % of control | T/C [17]: 110 % of control | T/C (dose: 400.0 mg/kg/injection, vehicle: saline with Tween-80): 108 % of control

O=C(Nc1nncs1)c1cccs1
T/C [3]: 111 % of control | T/C [5]: 93 % of control | T/C [7]: 96 % of control | T/C [16]: 103 % of control

C=C1C(=O)C2=CC1CCC(=O)C1(C)CCC(OC(C)=O)C(C)(C)C1CC2O (stereo not given)
T/C (dose: 3.75 mg/kg/injection, vehicle: Klucel (hydroxypropylcellulose) (HPC)): 93 % of control | T/C (dose: 7.5 mg/kg/injection, vehicle: Klucel (hydroxypropylcellulose) (HPC)): 110 % of control | T/C (dose: 15.0 mg/kg/injection, vehicle: Klucel (hydroxypropylcellulose) (HPC)): 98 % of control | T/C (dose: 30.0 mg/kg/injection, vehicle: Klucel (hydroxypropylcellulose) (HPC)): 96 % of control | T/C (dose: 60.0 mg/kg/injection, vehicle: Klucel (hydroxypropylcellulose) (HPC)): 100 % of control

Cc1c(N)nc(C(CC(N)=O)NCC(N)C(N)=O)nc1C(=O)NC(C(=O)NC(C)C(O)C(C)C(=O)NC(C(=O)NCCc1nc(-c2nc(C(=O)NCCCNCCCc3ccccn3)cs2)cs1)C(C)O)C(OC1OC(CO)C(O)C(O)C1OC1OC(CO)C(O)C(OC(N)=O)C1O)c1cnc[nH]1 (stereo not given)
T/C (dose: 2.0 mg/kg/injection, vehicle: saline): 113 % of control | T/C [9]: 108 % of control | T/C (dose: 4.0 mg/kg/injection, vehicle: saline): 110 % of control | T/C [10]: 108 % of control | T/C [2]: 122 % of control | T/C (dose: 8.0 mg/kg/injection, vehicle: saline): 114 % of control | T/C [12]: 123 % of control | T/C [4]: 123 % of control

COc1cc(Cl)ccc1C
T/C [3]: 102 % of control | T/C [5]: 98 % of control | T/C [7]: 100 % of control | T/C [16]: 97 % of control | T/C [17]: 97 % of control

Cc1ccc(NCCN(C)C)c2c(=O)c3cc(O)ccc3sc12
T/C [11]: 101 % of control | T/C (dose: 12.5 mg/kg/injection, vehicle: Klucel (hydroxypropylcellulose) (HPC)): 103 % of control | T/C (dose: 25.0 mg/kg/injection, vehicle: Klucel (hydroxypropylcellulose) (HPC)): 105 % of control and 121 % of control | T/C (dose: 50.0 mg/kg/injection, vehicle: Klucel (hydroxypropylcellulose) (HPC)): 121 % of control and 123 % of control | T/C (dose: 100.0 mg/kg/injection, vehicle: Klucel (hydroxypropylcellulose) (HPC)): 120 % of control and 232 % of control | T/C (dose: 200.0 mg/kg/injection, vehicle: Klucel (hydroxypropylcellulose) (HPC)): 155 % of control

c1cc2n(n1)CCN2
T/C [6]: 107 % of control | T/C [8]: 97 % of control | T/C [18]: 97 % of control

O=C1CCC(=O)N1CO
T/C [6]: 94 % of control | T/C [8]: 98 % of control | T/C [18]: 94 % of control | T/C (dose: 200.0 mg/kg/injection, vehicle: saline): 103 % of control | T/C (dose: 400.0 mg/kg/injection, vehicle: saline): 106 % of control

O=C(O[Si](Cc1ccccc1)(Cc1ccccc1)Cc1ccccc1)N(CCCl)CCCl
T/C [1]: 100 % of control | T/C [3]: 108 % of control | T/C [5]: 90 % of control and 100 % of control | T/C [7]: 103 % of control | T/C [16]: 108 % of control and 123 % of control | T/C [17]: 124 % of control

CCCCCCCCCCCCCCCCP(=O)(OCCOCCCCCC)OCCOCCCCCC
T/C (dose: 6.25 mg/kg/injection, vehicle: suspension in saline): 100 % of control | T/C [13]: 100 % of control | T/C [14]: 107 % of control | T/C [15]: 102 % of control

Reference: PubChem BioAssay AID276 (DTP/NCI, 2004)
